Measurements as given in US20020022266A1, “Localized delivery to a target surface” (priority 2000, published 2002).

Experiments:
Bovine carotid arteries = test system: Bovine carotid arteries
Text: (§1) Bovine carotid and rabbit femoral arteries were harvested and placed into a container with DMEM. The arteries were then transferred to a petri dish with DPBS, and excess fat was removed from the vessel exterior with the aid of a scalpel and forceps. The vessel was then filleted with a pair of surgical scissors to expose the luminal surface. The lumen of the bovine vessel was scrape damaged with a spatula to simulate the damage that would occur during a vascular procedure in which plaque is scrapped off. The vessel was utilized without further preparation. The vessels were loaded into a tubular perfusion chamber. The wash medium used was DMEM with a 4.5 g/dl of bovine serum albumin [BSA] (Sigma). A syringe pump (Harvard Apparatus) was used to provide flow and mimic the arterial shear conditions that would be experienced in vivo. Initially, the vessel was perfused for five minutes with the wash medium. At this point, 1 mL of a 10 mM NHS-PEG-Biotin solution was injected into the chamber and incubated with the vessel for modification for one minute. Again, the wash medium was perfused for five minutes. Next, a 10 mL solution of NeutrAvidin-coated microspheres (Molecular Probes) at a concentration of 7.28×10^6 particles/mL was perfused over the modified surface for 2 minutes. The vessel was washed for five minutes one additional time and then removed from the chamber. Finally, the vessel was analyzed by counting the number of microspheres bound per mm^2 of tissue using epi-fluorescence microscopy. This same protocol was repeated for the control, with the vessel being incubated with DPBS alone and not the NHS-PEG-Biotin as described previously.

rabbit femoral arteries = conditions: 10 mM, one minute modification, two-minute perfusion, versus control, FIG. 3
Text: as §1

NHS-PEG-Biotin
number of microspheres bound per mm^2 of tissue (Bovine carotid arteries; bovine arteries, 10 mM, one minute modification, two-minute perfusion, versus control, FIG. 2): far greater than the control vessels
binding of the microspheres to the modified versus unmodified surfaces (fluorescent micrographs) (Bovine carotid arteries; carotid artery segments, 10 mM NHS-PEG-Biotin, one minute, FIGS. 1A and 1B): microspheres have attached
number of microspheres bound per mm^2 of tissue (rabbit femoral arteries): far greater than the control vessels
